Reference: patent US20080207632A1, “PROTEIN KINASE INHIBITORS” (SUPERGEN, INC., priority 2006, published 2008)
Blank lines part the entries; values can stand above or below the compound they belong to.

Columns and labels:
[1] = target: T1, aurora-2 kinase (Homo sapiens, UniProt O14965); test: aurora-2 kinase inhibition assay (Kinase-Glo, ATP remaining); assay type: biochemical; conditions: Example 54, Table 8; 3 μM ATP; read-out: Aurora-2 Inhibition, IC50
T1 construct: purchased Upstate, Lake Placid, N.Y; host or cells: sf9 cells
T1 sequence (O14965 1-403): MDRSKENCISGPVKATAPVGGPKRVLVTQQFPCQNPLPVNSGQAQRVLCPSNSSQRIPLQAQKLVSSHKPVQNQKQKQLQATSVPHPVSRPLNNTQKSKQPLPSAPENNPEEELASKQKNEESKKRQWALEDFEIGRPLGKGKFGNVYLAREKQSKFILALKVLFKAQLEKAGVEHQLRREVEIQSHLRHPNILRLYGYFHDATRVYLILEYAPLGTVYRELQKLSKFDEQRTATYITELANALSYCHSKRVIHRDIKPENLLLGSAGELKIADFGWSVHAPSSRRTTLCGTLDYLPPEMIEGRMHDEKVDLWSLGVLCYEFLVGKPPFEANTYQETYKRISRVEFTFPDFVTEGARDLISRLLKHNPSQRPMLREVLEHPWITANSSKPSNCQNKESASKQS
Protocol: (§1) In this assay kinase activity was determined by quantifying the amount of ATP remaining in solution following a kinase reaction by measuring the light units (LU) produced by luciferase using a luminometer. Percent inhibition was determined for individual compounds by comparing luminometer readings of drug-treated reactions to controls containing no drug (DMSO control) and no Aurora-2 enzyme (ATP control) in the following equation: […]
(§2) In a 50 μl reaction, recombinant aurora-2 kinase produced in sf9 cells (Upstate, Lake Placid, N.Y.) was incubated at 30° C. for two hours with 62.5 μM Kemptide (Calbiochem, San Diego, Calif.), 3 μM ATP (Invitrogen, Carlsbad, Calif.) and kinase reaction buffer (40 mM Tris-HCl, 10 mM MgCl2 and 0.1 μg/μl bovine serum albumin (BSA)). This reaction was carried out in the presence of drug substances, which had been previously diluted to desired concentrations in DMSO. After incubation, 50 μl of Kinase-Glo® (Promega, Inc., Madison, Wis.) solution was added to each reaction mixture and allowed to equilibrate for 10 minutes at room temperature. Kinase-Glo solution contains luciferase enzyme and luciferin, which react with ATP to produce light. Kinase activity is determined by quantifying the amount of ATP remaining in solution following the kinase reaction by measuring the light units (LU) produced by luciferase using a luminometer (Thermo-Electron, Vantaa, Finland).
as §1, with “Briefly,” for “In this assay”
as §2, with “μg/Il” for “μg/μl”
as §1, with “Illustrative compounds 2-3, 2-5, 2-7, 2-4 and 2-9 were evaluated in an aurora-2 kinase inhibition assay. In” for “In”

[2] = tested on: MDA-MB-231 breast carcinoma cells; test: cell proliferation assay (Cell-Titer-Glo), MDA-MB-231; assay type: cell-based; conditions: Homo sapiens, Example 65, 96 hours, read-out: IC50 (reduce cell number to 50% of untreated controls)
Protocol: Cell culture-based assays can be used to evaluate the ability of compounds of the invention to inhibit one or more cellular activities, such as cancer cell growth and/or survival. Numerous cancer cell lines can be obtained from the American Type Culture Collection (ATCC) and other sources. Briefly, cells are seeded into 96-well, tissue-culture treated, opaque white plates (Thermo Electron, Vantaa, Finland), at between 5000 and 10000 cells per well, depending on the speed of cell proliferation, in 100 μl of appropriate growth medium (determined by the ATCC). Cells are then exposed to the appropriate concentration of drug or an equal amount of DMSO (drug diluent) and allowed to grow in its presence for 96 hours. Following this, 100 μl of Cell-Titer-Glo reagent (Promega, Inc., Madison, Wis.) is added to each well. Plates are then shaken for 2 minutes at room temperature to allow for cell lysis and incubated for 10 minutes to stabilize the luminescent signal. Similar to the Kinase-Glo assay reagent from Promega, this reagent contains both luciferase enzyme and its substrate luciferin. Luciferase, activated by ATP in the cell lysate, catalyzes the conversion of luciferin to oxyluciferin, a reaction which produces light. The amount of light produced is proportionate to the amount of ATP in the cell lysate, which is itself proportional to cell number and gives an index of cellular proliferation.
Compound 1-1 and Compound 2-11 were tested in a cell proliferation assay to determine potency in a cell-based assay format. Briefly, MDA-MB-231 breast carcinoma cells were inoculated onto 96-well plates and incubated in the presence of compounds for 96 hours. Following incubation, cells were lysed and ATP content used as a surrogate for cell number, using the Cell-Titer-Glo Luminescent Cell Viability Assay Kit (Promega Corp.). IC50 values, representing the concentration required to reduce cell number to 50% of untreated controls, were determined to be 20 uM for Compound 1-1 and 10 uM for Compound 2-11.

[3] = target: T2, phosphorylated Axl in MDA-MB-231 breast carcinoma cells (Homo sapiens, UniProt P30530); test: Axl autophosphorylation sandwich ELISA in cells; assay type: cell-based; conditions: 10 uM, 48 hours
T2 construct: endogenous in cells; host or cells: MDA-MB-231 breast carcinoma cells
T2 sequence (P30530 26-894): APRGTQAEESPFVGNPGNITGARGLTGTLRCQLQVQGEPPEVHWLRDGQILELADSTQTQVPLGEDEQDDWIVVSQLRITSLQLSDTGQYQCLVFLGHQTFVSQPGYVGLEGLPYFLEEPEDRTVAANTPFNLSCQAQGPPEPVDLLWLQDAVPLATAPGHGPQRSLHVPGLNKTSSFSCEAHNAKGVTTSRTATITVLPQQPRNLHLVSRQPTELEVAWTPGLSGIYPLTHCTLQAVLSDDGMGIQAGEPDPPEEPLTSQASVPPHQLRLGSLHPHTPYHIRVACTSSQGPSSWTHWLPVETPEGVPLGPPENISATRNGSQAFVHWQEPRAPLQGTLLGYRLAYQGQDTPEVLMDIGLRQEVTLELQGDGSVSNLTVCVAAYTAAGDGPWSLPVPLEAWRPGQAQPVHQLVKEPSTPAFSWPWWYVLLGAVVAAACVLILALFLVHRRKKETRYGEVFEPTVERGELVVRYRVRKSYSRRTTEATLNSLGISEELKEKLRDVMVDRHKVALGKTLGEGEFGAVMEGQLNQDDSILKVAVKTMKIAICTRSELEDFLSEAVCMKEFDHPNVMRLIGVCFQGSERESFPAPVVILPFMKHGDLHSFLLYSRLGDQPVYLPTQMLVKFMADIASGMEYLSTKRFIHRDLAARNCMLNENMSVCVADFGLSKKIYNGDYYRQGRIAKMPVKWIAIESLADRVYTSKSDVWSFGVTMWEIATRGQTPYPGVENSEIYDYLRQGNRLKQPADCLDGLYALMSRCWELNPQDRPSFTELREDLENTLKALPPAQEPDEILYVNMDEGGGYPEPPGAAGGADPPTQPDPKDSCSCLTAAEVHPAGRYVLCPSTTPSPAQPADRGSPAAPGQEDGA
Protocol: Compound 2-11 was examined in a cell-based assay to determine its ability to reduce the activity of the Axl kinase enzyme in cell culture. Axl, like many receptor tyrosine kinases, autophosphorylates in response to growth factor stimulation. Briefly, MDA-MB-231 breast carcinoma cells were plated in 25 cm^2 tissue culture flasks and incubated in the presence of varying concentrations of Compound 2-11 for 48 hours. Following incubation, cells were lysed and the presence of phosphorylated Axl was detected using a commercially available sandwich ELISA assay kit (R&D Systems Inc.). […] For example, at concentrations as low as 10 uM, levels of phosphorylated Axl were reduced to less than 50% of those observed for untreated control samples.

[4] = tested on: Granta-4 lymphoma cell line; test: lymphoma cell number reduction, Granta-4; assay type: cell-based; conditions: 48 hours; read-out: IC50 Values Granta-4, single agent
Protocol: (§3) New IC50 values were calculated for the second agent in an effort to determine whether or not pretreatment with one compound would increase sensitivity to the other. As set forth in the table below, compound 2-3 pretreatment led to an increased sensitivity to Taxol®, however Taxol® pretreatment appeared to be […] to compound 2-3 in this assay.

[5] = tested on: Granta-22 lymphoma cell line; test: lymphoma cell number reduction, Granta-22; assay type: cell-based; conditions: 48 hours; read-out: IC50 Values Granta-22, single agent
Protocol: as §3

IC50 [1]: 153 nM
Structure (SMILES): COc1cc2[nH]c3ncnc(N4CCN(C(=S)Nc5ccc(S(=O)(=O)Nc6ccc(C(F)(F)F)cc6)cc5)CC4)c3c2cc1OC [Compound 2-4, 4-(6,7-dimethoxy-9H-pyrimido[4,5-b]indol-4-yl)-N-(4-(N-(4-trifluoronethylhenyl)sulfamoyl)phenyl)piperazine-1-carbothioamide]

IC50 [2]: 10000 nM
levels of phosphorylated Axl relative to untreated control samples [3]: less than 50%
Structure (SMILES): CCc1nnc(NS(=O)(=O)c2ccc(NC(=S)N3CCN(c4ncnc5[nH]c6ccc(Cl)cc6c45)CC3)cc2)s1 [Compound 2-11]

IC50 [4]: 301 nM
IC50 [5]: 2720 nM
Structure (SMILES): CC(=O)O[C@H]1C(=O)[C@@]2(C)[C@H]([C@H](OC(=O)c3ccccc3)[C@]3(O)C[C@H](OC(=O)[C@H](O)[C@@H](NC(=O)c4ccccc4)c4ccccc4)C(C)=C1C3(C)C)[C@]1(OC(C)=O)CO[C@@H]1C[C@@H]2O [Taxol ®, reference compound]
